Reference: US10765674B2, “Prevention of HIV-infection” (Janssen Sciences Ireland Unlimited Company, priority 2005, dated 2020)

Experiment: Tissue concentrations of TMC278 in beagle dog (biopsy on day 232) after single intramuscular administration
Assay type: in vivo, beagle dogs
Details: dog No. 16924, day 232 after single IM 2.5 mg/kg, aqueous 30% DMA/50% PEG400 solution; for concentration at 232 day: male, beagle, intramuscular
Procedure: On day 232 post-dose, a biopsy was performed (dog No. 16924 only) on the iliac lymph node (at the side of injection), on a muscle from the non-injected hind leg and on a muscle at the side of injection after ultrasonographic examination. All tissue samples were protected from light as much as possible and stored on melting ice. All samples were protected from light and stored at ≤−18° C. Finally, an additional blood sample was collected on day 272. This sample was processed and analysed similarly to the other blood samples. The concentration of TMC278 in dog tissue samples was also determined by a qualified research LC-MS/MS method. Tissues samples were homogenized with a 10-fold dilution in Milli-Q water by means of an Ultra-Turrax. The tissue homogenates (200 μl aliquot) were extracted by adding of 600 μl methanol (containing […]). After vortexing and centrifugation, the supernatant was transferred to an HPLC vial and 20 μl aliquots were injected. The LC and the MS conditions were the same as described above. The lower limit of quantification was 10.0 ng/g tissue. Samples were protected from light during the bioanalytical analysis.

[1] = muscle at the side of injection
[2] = muscle from the non-injected hind leg

concentration at 232 day (iliac lymph node at the side of injection): 72.6 ng/g | concentration at 232 day [1]: < 10 ng/g | concentration at 232 day [2]: < 10 ng/g | tissue concentration [1]: <10.0 ng/g | tissue concentration [2]: <10.0 ng/g
SMILES: Cc1cc(C=CC#N)cc(C)c1Nc1ccnc(Nc2ccc(C#N)cc2)n1 [TMC278, 4-[[4-[[4-(2-cyanoethenyl)-2,6-dimethylphenyl]amino]-2-pyrimidinyl]-amino]benzonitrile]
